Results from PubChem BioAssay AID248 (DTP/NCI, 2004).
Values joined by “and” are separate entries in the source; they are usually repeats but may differ in a detail not shown here. Equal entries are not always repeated. Toxic doses and inconclusive results are not listed.

Test system: L1210 leukemia ip in BDF1 mice, survival T/C
Assay: NCI In Vivo Anticancer Drug Screen. Data for tumor model L1210 Leukemia (intraperitoneal) in B6D2F1 (BDF1) mice
Details: endpoint: mean survival time, higher = longer survival
Procedure, shortened: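 Transplantable tumor model; survival measured in treated vs vehicle control mice. Value = treated/control.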

[1] = dose: 50.0 mg/kg/injection, schedule: Q01DX001 (ip), vehicle: saline
[2] = dose: 100.0 mg/kg/injection, schedule: Q01DX001 (ip), vehicle: saline
[3] = dose: 200.0 mg/kg/injection, schedule: Q01DX001 (ip), vehicle: saline
[4] = dose: 100.0 mg/kg/injection, schedule: Q04DX003 (ip), vehicle: Klucel (hydroxypropylcellulose) (HPC)
[5] = dose: 200.0 mg/kg/injection, schedule: Q04DX003 (ip), vehicle: Klucel (hydroxypropylcellulose) (HPC)
[6] = dose: 400.0 mg/kg/injection, schedule: Q04DX003 (ip), vehicle: Klucel (hydroxypropylcellulose) (HPC)
[7] = dose: 400.0 mg/kg/injection, schedule: Q01DX001 (ip), vehicle: saline
[8] = dose: 100.0 mg/kg/injection, schedule: Q01DX009 (ip), vehicle: Klucel (hydroxypropylcellulose) (HPC)
[9] = dose: 100.0 mg/kg/injection, schedule: Q01DX009 (ip), vehicle: saline with Tween-80
[10] = dose: 100.0 mg/kg/injection, schedule: Q04DX003 (ip), vehicle: saline with Tween-80
[11] = dose: 200.0 mg/kg/injection, schedule: Q04DX003 (ip), vehicle: saline with Tween-80

CSc1cccc(NC(=O)Nc2ccc(Cl)cc2)c1
T/C (dose: 100.0 mg/kg/injection, schedule: Q04DX002 (ip), vehicle: saline with Tween-80): 104 % of control | T/C (dose: 200.0 mg/kg/injection, schedule: Q04DX002 (ip), vehicle: saline with Tween-80): 93 % of control | T/C (dose: 400.0 mg/kg/injection, schedule: Q04DX002 (ip), vehicle: saline with Tween-80): 89 % of control

O=[N+]([O-])/C=C/c1ccc([N+](=O)[O-])cc1Cl
T/C (dose: 12.5 mg/kg/injection, schedule: Q01DX009 (ip), vehicle: saline): 101 % of control | T/C (dose: 25.0 mg/kg/injection, schedule: Q01DX009 (ip), vehicle: saline): 103 % of control | T/C [1]: 100 % of control | T/C (dose: 50.0 mg/kg/injection, schedule: Q01DX009 (ip), vehicle: saline): 108 % of control | T/C (dose: 50.0 mg/kg/injection, schedule: Q04DX003 (ip), vehicle: saline with Tween-80): 119 % of control | T/C [2]: 93 % of control | T/C [3]: 102 % of control

C[S+]1C=Cc2ccccc2C1c1ccc(Cl)cc1 (stereo unspecified)
T/C (dose: 25.0 mg/kg/injection, schedule: Q04DX002 (ip), vehicle: Klucel (hydroxypropylcellulose) (HPC)): 117 % of control

O=[N+]([O-])c1cccc(S(=O)(=O)NNc2cccc(C(F)(F)F)c2)c1
T/C [4]: 99 % of control | T/C [5]: 94 % of control | T/C [6]: 89 % of control

Cc1c2c(n(C)c1C(=O)N1CCOCC1)CCCC2=O
T/C (dose: 100.0 mg/kg/injection, schedule: Q04DX003 (ip), vehicle: carboxymethylcellulose (CMC)): 101 % of control | T/C (dose: 200.0 mg/kg/injection, schedule: Q04DX003 (ip), vehicle: carboxymethylcellulose (CMC)): 98 % of control | T/C (dose: 400.0 mg/kg/injection, schedule: Q04DX003 (ip), vehicle: carboxymethylcellulose (CMC)): 98 % of control

CN1NCc2cncnc21
T/C [1]: 97 % of control | T/C [2]: 103 % of control | T/C [3]: 101 % of control | T/C [7]: 103 % of control

CC(O)c1ccc(Cl)c(Cl)c1 (stereo unspecified)
T/C [8]: 91 % of control | T/C [4]: 98 % of control | T/C (dose: 200.0 mg/kg/injection, schedule: Q01DX009 (ip), vehicle: Klucel (hydroxypropylcellulose) (HPC)): 90 % of control | T/C [5]: 109 % of control | T/C (dose: 400.0 mg/kg/injection, schedule: Q01DX009 (ip), vehicle: Klucel (hydroxypropylcellulose) (HPC)): 101 % of control | T/C [6]: 104 % of control

CCCOCCOCCOC(C)Oc1ccccc1OC (stereo unspecified)
T/C (dose: 100.0 mg/kg/injection, schedule: Q04DX002 (ip), vehicle: saline): 92 % of control | T/C (dose: 200.0 mg/kg/injection, schedule: Q04DX002 (ip), vehicle: saline): 88 % of control | T/C (dose: 400.0 mg/kg/injection, schedule: Q04DX002 (ip), vehicle: saline): 95 % of control

CCCSc1ncnc2c1nc(C)n2CO
T/C [2]: 114 % of control | T/C [3]: 114 % of control | T/C [7]: 121 % of control

COCC(COC)CC1CO1 (stereo unspecified)
T/C (dose: 50.0 mg/kg/injection, schedule: Q01DX009 (ip), vehicle: saline with Tween-80): 96 % of control | T/C [9]: 100 % of control | T/C (dose: 200.0 mg/kg/injection, schedule: Q01DX009 (ip), vehicle: saline with Tween-80): 96 % of control

OCC[CH2][Pb]([c]1ccccc1)([c]1ccccc1)[c]1ccccc1
T/C (dose: 3.12 mg/kg/injection, schedule: Q04DX003 (ip), vehicle: Klucel (hydroxypropylcellulose) (HPC)): 94 % of control | T/C (dose: 6.25 mg/kg/injection, schedule: Q04DX003 (ip), vehicle: Klucel (hydroxypropylcellulose) (HPC)): 97 % of control

O=[N+]([O-])c1cc([N+](=O)[O-])c2ccc(S(=O)(=O)O)cc2c1O
T/C (dose: 20.0 mg/kg/injection, schedule: Q01DX009 (ip), vehicle: Klucel (hydroxypropylcellulose) (HPC)): 97 % of control | T/C (dose: 20.0 mg/kg/injection, schedule: Q04DX003 (ip), vehicle: Klucel (hydroxypropylcellulose) (HPC)): 110 % of control | T/C (dose: 40.0 mg/kg/injection, schedule: Q01DX009 (ip), vehicle: Klucel (hydroxypropylcellulose) (HPC)): 100 % of control | T/C (dose: 40.0 mg/kg/injection, schedule: Q04DX003 (ip), vehicle: Klucel (hydroxypropylcellulose) (HPC)): 109 % of control | T/C (dose: 80.0 mg/kg/injection, schedule: Q01DX009 (ip), vehicle: Klucel (hydroxypropylcellulose) (HPC)): 103 % of control | T/C (dose: 80.0 mg/kg/injection, schedule: Q04DX003 (ip), vehicle: Klucel (hydroxypropylcellulose) (HPC)): 105 % of control | T/C [4]: 106 % of control

CCCCNC(C)(C)C(SC(C)=O)c1ccc(Cl)cc1 (stereo unspecified)
T/C [9]: 89 % of control

N#C/C(=C\c1cc(Cl)cc(Cl)c1O)c1ccc([N+](=O)[O-])cc1
T/C [10]: 90 % of control | T/C [11]: 92 % of control

Nc1nc(N)c2nc(CO)cnc2n1
T/C (dose: 12.5 mg/kg/injection, schedule: Q01DX009 (ip), vehicle: Klucel (hydroxypropylcellulose) (HPC)): 98 % of control | T/C (dose: 25.0 mg/kg/injection, schedule: Q01DX009 (ip), vehicle: Klucel (hydroxypropylcellulose) (HPC)): 102 % of control | T/C (dose: 50.0 mg/kg/injection, schedule: Q01DX009 (ip), vehicle: Klucel (hydroxypropylcellulose) (HPC)): 101 % of control and 105 % of control | T/C [8]: 101 % of control

NC1CCCCC1.[O]=[Cr](=[O])([OH])[OH]
T/C (dose: 12.5 mg/kg/injection, schedule: Q01DX009 (ip), vehicle: saline sonified): 100 % of control | T/C (dose: 25.0 mg/kg/injection, schedule: Q01DX009 (ip), vehicle: saline sonified): 109 % of control | T/C (dose: 50.0 mg/kg/injection, schedule: Q04DX003 (ip), vehicle: Klucel (hydroxypropylcellulose) (HPC)): 102 % of control | T/C (dose: 75.0 mg/kg/injection, schedule: Q01DX001 (ip), vehicle: saline): 98 % of control

CNC1=C(N2CC2)C(=O)C(NC)=C(N2CC2)C1=O
T/C (dose: 0.01 mg/kg/injection, schedule: Q01DX009 (ip), vehicle: Klucel (hydroxypropylcellulose) (HPC)): 97 % of control and 102 % of control | T/C (dose: 0.02 mg/kg/injection, schedule: Q01DX009 (ip), vehicle: Klucel (hydroxypropylcellulose) (HPC)): 100 % of control and 101 % of control | T/C (dose: 0.04 mg/kg/injection, schedule: Q01DX009 (ip), vehicle: Klucel (hydroxypropylcellulose) (HPC)): 109 % of control and 119 % of control | T/C (dose: 0.05 mg/kg/injection, schedule: Q01DX009 (ip), vehicle: saline): 106 % of control | T/C (dose: 0.09 mg/kg/injection, schedule: Q04DX003 (ip), vehicle: Klucel (hydroxypropylcellulose) (HPC)): 110 % of control | T/C (dose: 0.1 mg/kg/injection, schedule: Q01DX009 (ip), vehicle: saline): 118 % of control | T/C (dose: 0.1 mg/kg/injection, schedule: Q04DX003 (ip), vehicle: saline): 103 % of control | T/C (dose: 0.19 mg/kg/injection, schedule: Q01DX009 (ip), vehicle: Klucel (hydroxypropylcellulose) (HPC)): 161 % of control | T/C (dose: 0.2 mg/kg/injection, schedule: Q01DX009 (ip), vehicle: saline): 173 % of control | T/C (dose: 0.2 mg/kg/injection, schedule: Q04DX003 (ip), vehicle: saline): 112 % of control | T/C (dose: 0.37 mg/kg/injection, schedule: Q01DX001 (ip), vehicle: saline): 108 % of control | T/C (dose: 0.39 mg/kg/injection, schedule: Q01DX009 (ip), vehicle: Klucel (hydroxypropylcellulose) (HPC)): 112 % of control and 88 % of control | T/C (dose: 0.39 mg/kg/injection, schedule: Q04DX003 (ip), vehicle: Klucel (hydroxypropylcellulose) (HPC)): 156 % of control | T/C (dose: 0.78 mg/kg/injection, schedule: Q04DX003 (ip), vehicle: Klucel (hydroxypropylcellulose) (HPC)): 112 % of control and 115 % of control | T/C (dose: 0.8 mg/kg/injection, schedule: Q04DX003 (ip), vehicle: saline): 157 % of control

CCOC(=O)c1cnc(SC)nc1NCc1ccccc1C
T/C [10]: 94 % of control | T/C [11]: 94 % of control | T/C (dose: 400.0 mg/kg/injection, schedule: Q04DX003 (ip), vehicle: saline with Tween-80): 92 % of control

NCC1C2CC3CC(C2)CC1C3 (stereo unspecified)
T/C (dose: 12.5 mg/kg/injection, schedule: Q01DX001 (ip), vehicle: saline): 106 % of control | T/C (dose: 25.0 mg/kg/injection, schedule: Q01DX001 (ip), vehicle: saline): 97 % of control | T/C [1]: 93 % of control | T/C (dose: 100.0 mg/kg/injection, schedule: Q04DX002 (ip), vehicle: Klucel (hydroxypropylcellulose) (HPC)): 98 % of control | T/C (dose: 200.0 mg/kg/injection, schedule: Q04DX002 (ip), vehicle: Klucel (hydroxypropylcellulose) (HPC)): 96 % of control

c1cnc(N2CCCCC2)cn1
T/C [2]: 94 % of control | T/C [3]: 96 % of control | T/C [7]: 102 % of control

COc1ccc(C2(O)C3CCC(C3)C2(C)C)cc1 (stereo unspecified)
T/C (dose: 50.0 mg/kg/injection, schedule: Q01DX001 (ip), vehicle: carboxymethylcellulose (CMC)): 89 % of control | T/C (dose: 100.0 mg/kg/injection, schedule: Q01DX001 (ip), vehicle: carboxymethylcellulose (CMC)): 89 % of control | T/C (dose: 200.0 mg/kg/injection, schedule: Q01DX001 (ip), vehicle: carboxymethylcellulose (CMC)): 89 % of control | T/C (dose: 400.0 mg/kg/injection, schedule: Q01DX001 (ip), vehicle: carboxymethylcellulose (CMC)): 95 % of control
